Source: publication PMC9143880, “Improving Antimicrobial Activity and Physico-Chemical Properties by Isosteric Replacement of 2-Aminothiazole with 2-Aminooxazole” (Pharmaceuticals, 2022)
In brackets after ≈: the same amount, converted by molar mass. Like-named read-outs stand apart in the source and are kept apart here.

Assays:
[1] = test system: Staphylococcus epidermidis CCM 4418 (ATCC 12228); assay: Antibacterial microdilution broth (EUCAST); assay type: cell-based; details: 24h incubation; for MIC: Staphylococcus epidermidis, read-out: MIC SE
[2] = test system: Aspergillus fumigatus ATCC 204305; assay: Antifungal microdilution broth (EUCAST); details: for MIC: Aspergillus fumigatus, ATCC204305, 24 h, read-out: MIC AF
[3] = test system: M. aurum DSM 43999 (ATCC 23366); assay: Antimycobacterial MIC, microdilution broth / resazurin; assay type: cell-based; details: Mycolicibacterium aurum; resazurin after 72 h; read-out: MIC M. aurum
[4] = test system: Staphylococcus aureus subsp. aureus CCM 4223 (ATCC 29213); assay: Antibacterial microdilution broth (EUCAST); assay type: cell-based; details: 24h incubation; for MIC: Staphylococcus aureus, read-out: MIC SA
[5] = test system: M. smegmatis DSM 43465 (ATCC 607); assay: Antimycobacterial MIC, microdilution broth / resazurin; assay type: cell-based; details: Mycolicibacterium smegmatis; resazurin after 48 h; read-out: MIC M. smegmatis
[6] = test system: Candida tropicalis CCM 8264 (ATCC 750); assay: Antifungal microdilution broth (EUCAST); details: for MIC: Candida tropicalis, 24 h, read-out: MIC CT
[7] = test system: Candida krusei CCM 8271 (ATCC 6258); assay: Antifungal microdilution broth (EUCAST); details: for MIC: Pichia kudriavzevii, 24 h, read-out: MIC CK
[8] = test system: Candida albicans CCM 8320 (ATCC 24433); assay: Antifungal microdilution broth (EUCAST); details: for MIC: Candida albicans, 24 h, read-out: MIC CA
[9] = test system: Mycobacterium tuberculosis H37Ra ITM-M006710 (ATCC 9431); assay: Antimycobacterial MIC, microdilution broth / Alamar Blue (resazurin); assay type: cell-based; details: for MIC: Mycobacterium tuberculosis
[10] = RP-UHPLC lipophilicity parameter log k’w; assay type: physicochemical; details: for log k’w: RP-UHPLC, acetonitrile/water, log k extrapolated to 0% acetonitrile; for logkw: experimental lipophilicity parameter
Description: Lipophilicity and water solubility of the drug candidates are important parameters as they are often directly related to their ADME properties in the organism. Lipophilicity is usually expressed as the logarithm of the partition coefficient in n-octanol/water (log P). Due to its laborious determination, especially in the HTS screening, other experimental methods such as RP-HPLC log k’w or purely computational approaches such as Clog P were proposed and have been established as reasonable estimators of true lipophilicity. To investigate the changes in lipophilicity upon introduction of oxazole in the title compounds, we determined the log k’w of all derivatives and compared respective values among the pairs.
The log k of the synthesized compounds was measured using the same instrument (single measurement per concentration), software, and column as was used in the purity evaluation. Working solutions were diluted as described above for purity determination. The log k parameter was calculated after the UHPLC measurements using isocratic mode with mobile phase acetonitrile (B)/water (A) in a set of concentrations of 40, 45, 50% and 20, 30, 40% B for subtype I and subtype II, respectively.

[11] = test system: Acinetobacter baumannii DSM 30007 (ATCC 19606); assay: Antibacterial microdilution broth (EUCAST); assay type: cell-based; details: 24h incubation; for MIC: Acinetobacter baumannii, read-out: MIC AB
HepG2 cells = assay: HepG2 cytotoxicity screening (CellTiter 96); assay type: cell-based, human; details: for IC50: Homo sapiens, HepG2, 24 h, 24 h incubation, CellTiter 96, * above highest tested concentration, ** limited by insolubility in medium; for SI: SI = IC50 (µM) HepG2 / MICH37Ra (µM)
[12] = test system: Lichtheimia corymbifera CCM 8077; assay: Antifungal microdilution broth (EUCAST); details: for MIC: Lichtheimia corymbifera, CCM8077, 24 h, read-out: MIC LC
[13] = test system: Enterococcus faecalis CCM 4224 (ATCC 29212); assay: Antibacterial microdilution broth (EUCAST); assay type: cell-based; details: 24h incubation; for MIC: Enterococcus faecalis, read-out: MIC EF
[14] = test system: M. avium DSM 44156 (ATCC 25291); assay: Antimycobacterial MIC, microdilution broth / resazurin; assay type: cell-based, Mycobacterium avium; details: Mycobacterium avium; resazurin after 96 h; read-out: MIC M. avium
[15] = test system: Escherichia coli CCM 3954 (ATCC 25922); assay: Antibacterial microdilution broth (EUCAST); assay type: cell-based; details: 24h incubation; for MIC: Escherichia coli, read-out: MIC EC
[16] = test system: Staphylococcus aureus subsp. aureus (MRSA) CCM 4750 (ATCC 43300); assay: Antibacterial microdilution broth (EUCAST); assay type: cell-based; details: 24h incubation; for MIC: Staphylococcus aureus, read-out: MIC MRSA
[17] = test system: M. kansasii DSM 44162 (ATCC 12478); assay: Antimycobacterial MIC, microdilution broth / resazurin; assay type: cell-based; details: Mycobacterium kansasii, read-out: MIC M. kansasii
[18] = test system: Aspergillus flavus CCM 8363; assay: Antifungal microdilution broth (EUCAST); details: for MIC: Aspergillus flavus, CCM8363, 24 h, read-out: MIC AFla
[19] = test system: Pseudomonas aeruginosa CCM 3955 (ATCC 27853); assay: Antibacterial microdilution broth (EUCAST); assay type: cell-based; details: 72h incubation; for MIC: Pseudomonas aeruginosa, read-out: MIC PA
[20] = test system: Candida parapsilosis CCM 8260 (ATCC 22019); assay: Antifungal microdilution broth (EUCAST); details: for MIC: Lodderomyces parapsilosis, 24 h, read-out: MIC CP
[21] = test system: Trichophyton interdigitale CCM 8377 (ATCC 9533); assay: Antifungal microdilution broth (EUCAST); details: for MIC: Trichophyton interdigitale, 72 h, read-out: MIC TI
[22] = 120 h, Middlebrook 7H9, resazurin after 120 h, read-out: Mtb H37Ra MIC
[23] = Middlebrook 7H9, resazurin after 120 h

| Structure (SMILES) | MIC [1] [µM] | MIC [2] [µM] | MIC [3] [µg/mL] | MIC [4] [µM] | MIC [5] [µg/mL] | MIC [6] [µM] | MIC [7] [µM] | MIC [8] [µM] | MIC [9, 22] [µg/mL] | log k’w [10] | logkw [10] | MIC [11] [µM] | IC50 (HepG2 cells) [µM] | MIC [12] [µM] | melting point [°C] | MIC [13] [µM] | MIC [14] [µg/mL] | MIC [15] [µM] | MIC [16] [µM] | MIC [18] [µM] | further results |
| --- | --- | --- | --- | --- | --- | --- | --- | --- | --- | --- | --- | --- | --- | --- | --- | --- | --- | --- | --- | --- | --- |
| Cc1cc(C(=O)Nc2nccs2)cc(Cl)n1 [Compound 7a] | > 500 | > 125 | ≥ 500 | > 500 | ≥ 500 | > 125 | > 125 | > 125 | ≥ 500 | 2.319 | 2.319 | > 500 | > 250 | > 125 | 198.6 | > 500 | ≥ 500 | > 500 | > 500 | > 125 | MIC ([17]; resazurin after 96 h): ≥ 500 µg/mL; MIC [19]: > 500 µM; MIC [20]: > 125 µM; MIC [21]: > 125 µM |
| O=C(Nc1nccs1)c1cnc2ccccc2n1 [Compound 10a] | > 500 | > 500 | ≥ 250 | > 500 | ≥ 250 | > 500 | > 500 | > 500 | ≥ 250 | 2.530 | 2.53 | > 500 | > 50 | > 500 | 251.4 | > 500 | ≥ 250 | > 500 | > 500 | > 500 | MIC ([17]; resazurin after 96 h): 7.81 µg/mL (≈ 30.5 µM); MIC [19]: > 500 µM; MIC [20]: > 500 µM; MIC [21]: > 500 µM |
| O=C(Nc1nc(-c2ccccc2)cs1)c1ccccn1 [Compound 11a] | > 500 | > 500 | ≥ 500 | > 500 | ≥ 500 | > 500 | > 500 | > 500 | 3.91 to 7.81 | 3.102 | 3.102 | > 500 | > 100 | > 500 | 128 to 130 | > 500 | ≥ 500 | > 500 | > 500 | > 500 | Mtb H37Ra MIC [9, 23]: 3.91 µg/mL; MIC ([9]; recalculated from µg/mL, read-out: MICH37Ra): 13.9 µM; SI (HepG2 cells): >7.2; MIC ([17]; 96 h): 3.91 µg/mL (≈ 13.9 µM); MIC [19]: > 500 µM; MIC [20]: > 500 µM; MIC [21]: > 500 µM |
| O=C(Nc1nc(-c2ccccc2)co1)c1ccccn1 [Compound 11b] | 125 (≈ 33.2 µg/mL) | 500 (≈ 133 µg/mL) | 31.2 (≈ 118 µM) | 500 (≈ 133 µg/mL) | 125 (≈ 471 µM) | 500 (≈ 133 µg/mL) | 500 (≈ 133 µg/mL) | 500 (≈ 133 µg/mL) | 3.91 to 7.81 | 2.038 | 2.038 | > 500 | 883 | 125 (≈ 33.2 µg/mL) | 107 to 109 | > 500 | 31.2 (≈ 118 µM) | > 500 | 500 (≈ 133 µg/mL) | 500 (≈ 133 µg/mL) | Mtb H37Ra MIC [9, 23]: 3.91 µg/mL; MIC ([9]; read-out: MICH37Ra, recalculated from µg/mL): 14.7 µM; SI (HepG2 cells): >67.8; MIC ([17]; 96 h): 3.91 µg/mL (≈ 14.7 µM); MIC [19]: > 500 µM; MIC [20]: 500 µM (≈ 133 µg/mL); MIC [21]: 62.5 µM (≈ 16.6 µg/mL) |
| Cc1cncc(C(=O)Nc2nc(-c3ccccc3)co2)c1 [Compound 14b] | 250 (≈ 69.8 µg/mL) | > 500 | ≥ 250 | 250 (≈ 69.8 µg/mL) | ≥ 250 | > 500 | > 500 | > 500 | ≥ 250 | 1.478 | 1.478 | > 250 | > 100 | > 500 | 258.6 | > 250 | ≥ 250 | > 250 | 250 (≈ 69.8 µg/mL) | > 500 | MIC ([17]; resazurin after 96 h): ≥ 250 µg/mL; MIC [19]: > 250 µM; MIC [20]: > 500 µM; MIC [21]: > 500 µM |
| O=C(Nc1nc(-c2ccccc2)co1)c1cnccn1 [Compound 17b] | > 500 | > 500 | 125 (≈ 469 µM) | > 500 | ≥ 500 | > 500 | > 500 | > 500 | 15.6 | 1.306 | 1.306 | > 500 | > 1000 | > 500 | 140 to 142 | > 500 | ≥ 500 | > 500 | > 500 | > 500 | MIC ([17]; 96 h): 15.6 µg/mL (≈ 58.7 µM); MIC [19]: > 500 µM; MIC [20]: > 500 µM; MIC [21]: > 500 µM |
| O=C(Nc1nc(-c2ccccc2)co1)c1cnc(Cl)cn1 [Compound 18b] |  |  | 125 (≈ 416 µM) |  | ≥ 500 |  |  |  | 15.6 | 2.073 | 2.073 |  | > 100 |  | 203 to 207 |  | 62.5 (≈ 208 µM) |  |  |  | MIC SE [1]: insoluble; MIC AF ([2]; 24h incubation): insoluble; MIC SA [4]: insoluble; MIC CT ([6]; 24h incubation): insoluble; MIC CK ([7]; 24h incubation): insoluble; MIC CA ([8]; 24h incubation): insoluble; MIC AB [11]: insoluble; MIC LC ([12]; 24h incubation): insoluble; MIC EF [13]: insoluble; MIC EC [15]: insoluble; MIC MRSA [16]: insoluble; MIC ([17]; 96 h): 15.6 µg/mL (≈ 52 µM); MIC AFla ([18]; 24h incubation): insoluble; MIC PA [19]: insoluble; MIC CP ([20]; 24h incubation): insoluble; MIC TI ([21]; 72h incubation): insoluble |
| O=C(Nc1nc(-c2ccccc2)co1)c1ccccc1 [Compound 20b] | 250 (≈ 66.1 µg/mL) | 500 (≈ 132 µg/mL) | 31.2 (≈ 118 µM) | 250 (≈ 66.1 µg/mL) | 125 (≈ 473 µM) | 500 (≈ 132 µg/mL) | 500 (≈ 132 µg/mL) | 500 (≈ 132 µg/mL) | 62.5 | 2.090 |  | 500 (≈ 132 µg/mL) | 330 | 500 (≈ 132 µg/mL) | 143 to 145 | > 500 | 31.2 (≈ 118 µM) | > 500 | 500 (≈ 132 µg/mL) | 500 (≈ 132 µg/mL) | MIC ([17]; resazurin after 96 h): 31.2 µg/mL (≈ 118 µM); MIC [19]: > 500 µM; MIC [20]: 500 µM (≈ 132 µg/mL); MIC [21]: 250 µM (≈ 66.1 µg/mL) |
